pIC50: −log10 of the molar value.
Columns and labels:
Assay type in all cases: cell-based
[1] = target: T1, Kv1.5 (Homo sapiens, UniProt P22460); assay: Kv1.5 Patch Clamp EP (whole cell patch clamp; single point at 1 μM and IC50); settings: for pIC50: concentration response; for inhibition at 1 µM: single point at 1.0 μM, Kv1.5 stably over expressed in HEK or LTK- cells
T1 construct: expressed in transfected cells; host or cells: HEK or LTK- cells
Procedure: The external solution is standard Tyrodes solution. […] Inhibition was measured at the end of the 1 second pulses and expressed relative to controls. Initial Kv1.5 inhibition is estimated by single point determinations done at 1 μM.

[2] = target: T2, HERG (Homo sapiens, UniProt Q12809); assay: HERG Patch Clamp EP (whole cell patch clamp, tail currents; single point at 10 μM and IC50); settings: for inhibition at 10 µM: human, HEK cells stably overexpressing HERG, single point at 10 μM, HERG in HEK cells, read-out: HERG % Inhib. @ 10 μM; for pIC50: concentration response
T2 construct: expressed in transfected cells; host or cells: HEK cells
T2 sequence (Q12809 whole entry): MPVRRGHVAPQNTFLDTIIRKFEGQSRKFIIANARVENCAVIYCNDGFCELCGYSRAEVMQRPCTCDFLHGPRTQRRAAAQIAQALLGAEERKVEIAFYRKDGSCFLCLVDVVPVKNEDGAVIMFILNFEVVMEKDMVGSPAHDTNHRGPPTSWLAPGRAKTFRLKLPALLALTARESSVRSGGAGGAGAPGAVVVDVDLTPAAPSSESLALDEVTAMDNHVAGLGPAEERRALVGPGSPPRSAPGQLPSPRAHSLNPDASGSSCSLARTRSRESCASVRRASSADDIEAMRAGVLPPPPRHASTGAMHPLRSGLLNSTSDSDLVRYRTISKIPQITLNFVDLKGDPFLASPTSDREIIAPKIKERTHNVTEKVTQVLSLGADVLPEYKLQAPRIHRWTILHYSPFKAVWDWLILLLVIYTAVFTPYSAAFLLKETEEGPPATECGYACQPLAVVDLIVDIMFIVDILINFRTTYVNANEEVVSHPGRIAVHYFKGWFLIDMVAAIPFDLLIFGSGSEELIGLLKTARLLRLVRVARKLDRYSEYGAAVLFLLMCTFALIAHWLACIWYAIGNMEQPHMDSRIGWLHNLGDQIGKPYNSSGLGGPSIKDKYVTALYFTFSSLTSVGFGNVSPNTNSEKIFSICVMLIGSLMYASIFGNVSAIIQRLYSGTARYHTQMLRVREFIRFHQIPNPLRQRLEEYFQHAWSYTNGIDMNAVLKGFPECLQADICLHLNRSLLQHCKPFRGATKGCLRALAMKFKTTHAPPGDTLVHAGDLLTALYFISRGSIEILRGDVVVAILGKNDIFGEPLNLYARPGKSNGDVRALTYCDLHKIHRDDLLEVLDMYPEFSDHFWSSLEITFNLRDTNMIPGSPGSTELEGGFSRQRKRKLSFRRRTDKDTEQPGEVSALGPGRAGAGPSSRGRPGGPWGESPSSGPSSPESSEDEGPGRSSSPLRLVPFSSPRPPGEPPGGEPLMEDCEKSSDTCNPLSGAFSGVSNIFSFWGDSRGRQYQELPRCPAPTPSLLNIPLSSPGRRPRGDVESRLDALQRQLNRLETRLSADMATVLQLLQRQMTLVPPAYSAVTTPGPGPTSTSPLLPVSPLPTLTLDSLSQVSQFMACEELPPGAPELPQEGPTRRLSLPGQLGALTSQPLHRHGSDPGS
From the text: The external solution is standard Tyrodes solution.

[3] = tested on: L-type calcium channels; assay: FLIPR L-type Calcium Channel Assay (calcium influx in HL-1 cells after KCl); settings: read-out: L-type Ca2+ IC50
Procedure: HL-1 cells expressing endogenous L-type calcium channels are removed from culture flasks using trypsin, plated on fibronectin/gelatin-coated, clear-bottomed, black-walled 96-well microplates in Claycomb media (JRH Biosciences #51800) containing 10% fetal bovine serum, 4 mM L-glutamine, and 10 μM norepinephrine, and grown to confluency overnight. The next day, growth medium is aspirated from confluent cell monolayers and replaced with 100 μL per well Tyrode's solution (in mM: 130 NaCl, 4 KCl, 1.8 CaCl2, 1.0 MgCl2, 20 HEPES, 10 glucose, pH 7.35) and 50 μL per well FLIPR Calcium Assay kit, component A (#R-8033, Molecular Devices Corporation) and incubated for 60 min. in a 5% CO2 37° C. incubator. 50 μL per well test compounds are added to the plates and further incubated for 15 min. in a 5% CO2 37° C. incubator. All final solutions contain the anion exchange inhibitor, probenecid (2.5 mM). The 96-well plates are then placed in the center position of the FLIPR 1 (Fluorometric Imaging Plate Reader, Molecular Devices Corporation). Cell monolayers in each well are simultaneously illuminated at 488 nm with an Argon ion laser, and fluorescence emission is monitored using a 510-570 nm bandpass filter and a cooled CCD camera. To depolarize the plasma membrane and activate L-type calcium channels, 50 μL per well of 20 mM KCl (final concentration) are dispensed simultaneously to all 96 wells using the FLIPR's automatic 96-well pipettor. Fluorescence measurements are captured for 5 min. following KCl addition. Calcium influx, expressed as % control, is calculated for each concentration of test compound and concentration-response curves and IC50 values are generated using GraphPad Prism 4.0.

T1 sequence (P22460 whole entry): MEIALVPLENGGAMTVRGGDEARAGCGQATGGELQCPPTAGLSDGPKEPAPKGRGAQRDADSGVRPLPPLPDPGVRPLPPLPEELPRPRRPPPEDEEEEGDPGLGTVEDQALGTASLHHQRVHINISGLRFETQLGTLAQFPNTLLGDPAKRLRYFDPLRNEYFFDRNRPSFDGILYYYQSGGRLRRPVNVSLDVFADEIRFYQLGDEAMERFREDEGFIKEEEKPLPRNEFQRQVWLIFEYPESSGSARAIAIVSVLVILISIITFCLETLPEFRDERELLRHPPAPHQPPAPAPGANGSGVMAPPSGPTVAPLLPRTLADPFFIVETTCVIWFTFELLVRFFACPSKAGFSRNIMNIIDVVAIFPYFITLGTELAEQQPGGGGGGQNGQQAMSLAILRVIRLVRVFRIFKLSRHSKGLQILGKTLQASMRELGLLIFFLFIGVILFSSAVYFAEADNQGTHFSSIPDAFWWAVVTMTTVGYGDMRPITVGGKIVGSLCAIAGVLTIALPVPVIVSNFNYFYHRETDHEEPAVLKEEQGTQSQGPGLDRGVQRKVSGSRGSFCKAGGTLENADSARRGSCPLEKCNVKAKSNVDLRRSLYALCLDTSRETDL

SMILES | pIC50 [1] | inhibition at 1 µM [1] | inhibition at 10 µM [2] | pIC50 [3] | pIC50 [2]
COc1ccc(CCN2C(=O)C3(CCN(C(=O)NC(C)C)CC3)N(C)C2c2ccc(C3CC3)cc2)cc1 (centres unmarked) [Compound 16, 2-(4-Cyclopropylphenyl)-3-[2-(4-methoxyphenyl)ethyl]-1-methyl-4-oxo-1,3,8-triaza-spiro[4.5]decane-8-carboxylic acid isopropylamide] | 6.50 | 92% | 48% | 4.89 | –
CC(C)NC(=O)N1CCC2(CC1)C(=O)N(CCCc1ccccc1)C(c1ccc(C3CC3)cc1)N2C (centres unmarked) [Compound 52, 2-(4-Cyclopropylphenyl)-1-methyl-4-oxo-3-(3-phenylpropyl)-1,3,8-triazaspiro-[4.5]decane-8-carboxylic acid isopropyl amide] | – | 89% | 79% | 4.92 | –
COc1ccc(CCN2C(=O)C3(CCN(CC(N)=O)CC3)N(C)C2c2ccc(C3CC3)cc2)cc1 (centres unmarked) [Compound 55, 2-{2-(4-Cyclopropylphenyl)-3-[2-(4-methoxyphenyl)ethyl]-1-methyl-4-oxo-1,3,8-triaza-spiro[4.5]dec-8-yl}acetamide] | – | 64% | 71% | 5.10 | –
COc1ccc(CCN2C(=O)C3(CCN(C(=O)N4CCCCC4)CC3)N(C)C2c2ccc(C3CC3)cc2)cc1 (centres unmarked) [Compound 9, 2-(4-Cyclopropylphenyl)-3-[2-(4-methoxyphenyl)ethyl]-1-methyl-8-(piperidine-1-carbonyl)-1,3,8-triaza-spiro[4.5]decan-4-one] | – | 96% | 60% | 5.21 | –
COc1ccc(CCN2C(=O)C3(CCN(C(N)=O)CC3)N(C)C2c2ccc(C(C)(C)C)cc2)cc1 (centres unmarked) [Compound 12, 2-(4-tert-Butylphenyl)-3-[2-(4-methoxyphenyl)ethyl]-1-methyl-4-oxo-1,3,8-triaza-spiro[4.5]decane-8-carboxylic acid amide] | 6.21 | 70% | 40% | 5.10 | –
CN1C(c2ccc(C3CC3)cc2)N(CCCc2ccccc2)C(=O)C12CCN(C(N)=O)CC2 (centres unmarked) [Compound 49, 2-(4-Cyclopropylphenyl)-1-methyl-4-oxo-3-(3-phenylpropyl)-1,3,8-triazaspiro-[4.5]decane-8-carboxylic acid amide] | 6.49 | 86% | 67% | 4.85 | 5.11
COc1ccc(CCN2C(=O)C3(CCN(C(N)=O)CC3)N(C)C2Cc2ccc(C(C)(C)C)cc2)cc1 (centres unmarked) [Compound 58, 2-(4-tert-Butylbenzyl)-3-[2-(4-methoxyphenyl)ethyl]-1-methyl-4-oxo-1,3,8-triazaspiro[4.5]decane-8-carboxylic acid amide] | 6.60 | 92% | 68% | 4.92 | 5.36
CN1C(c2ccc(C3CC3)cc2)N(CCc2ccc(OC(F)(F)F)cc2)C(=O)C12CCN(C(N)=O)CC2 (centres unmarked) [Compound 14, 2-(4-Cyclopropylphenyl)-3-[2-(4-trifluoromethoxyphenyl)ethyl]-1-methyl-4-oxo-1,3,8-triaza-spiro[4.5]decane-8-carboxylic acid amide] | – | 59% | 75% | 4.82 | –
COc1ccc(CCN2C(=O)C3(CCN(C(=O)N4CCC4)CC3)N(C)C2c2ccc(C3CC3)cc2)cc1 (centres unmarked) [Compound 21, 2-(4-cyclopropylphenyl)-3-[2-(4-methoxyphenyl)ethyl]-1-methyl-8-(azetidin-1-ylcarbonyl)-1,3,8-triaza-spiro[4.5]decan-4-one] | – | 97% | 54% | 4.96 | –
CCONC(=O)N1CCC2(CC1)C(=O)N(CCc1ccc(OC)cc1)C(c1ccc(C3CC3)cc1)N2C (centres unmarked) [Compound 27, 2-(4-cyclopropylphenyl)-N-ethoxy-3-(4-methoxyphenethyl)-1-methyl-4-oxo-1,3,8-triazaspiro[4.5]decane-8-carboxamide] | – | 87% | 35% | 4.70 | –
COc1ccc(CCN2C(=O)C3(CCN(C(N)=O)CC3)N(C)C2c2ccc(C3CC3)cc2)cc1 (centres unmarked) [Compound 7, 2-(4-Cyclopropylphenyl)-3-[2-(4-methoxyphenyl)ethyl]-1-methyl-4-oxo-1,3,8-triaza-spiro[4.5]decane-8-carboxylic acid amide] | 6.24 | 87% | 12% | 5.05 | 4.63
COc1ccc(CCN2C(=O)C3(CCN(C(=NC#N)Oc4ccccc4)CC3)N(C)C2c2ccc(OC)cc2)cc1 (centres unmarked) [Compound 67, 8-(phenyl-N-cyano-1-carbimidate)-2-(4-methoxyphenyl)-3-[2-(4-methoxyphenyl)ethyl]-1-methyl-1,3,8-triaza-spiro[4.5]decan-4-one] | – | 91% | 80% | 5.00 | –
COc1ccc(CCN2C(=O)C3(CCN(C(=O)C4CC4)CC3)N(C)C2c2ccc(CC(C)C)cc2)cc1 (centres unmarked) [Compound 83, 8-(cyclopropylcarbonyl)-2-(4-isobutylphenyl)-3-[2-(4-methoxyphenyl)ethyl]-1-methyl-1,3,8-triazaspiro[4.5]decan-4-one] | – | 93% | 84% | 5.17 | –
COc1ccc(CCN2C(=O)C3(CCN(C(=O)C4CC4)CC3)N(C)C2c2ccc(OC(F)F)cc2)cc1 (centres unmarked) [Compound 6, 8-Cyclopropylcarbonyl-2-(4-difluoromethoxyphenyl)-3-[2-(4-methoxyphenyl)-ethyl]-1-methyl-1,3,8-triazaspiro[4.5]decan-4-one] | – | 68% | 85% | 4.89 | –
COc1ccc(C2N(CCCc3ccccc3)C(=O)C3(CCN(C(=O)C4CC4)CC3)N2C)cc1 (centres unmarked) [Compound 46, 8-Cyclopropanecarbonyl-2-(4-methoxyphenyl)-3-(3-phenylpropyl)-1-methyl-1,3,8-triazaspiro-[4.5]decan-4-one] | – | 68% | 32% | 4.77 | –
CC(=O)N1CCC2(CC1)C(=O)N(CCCc1ccccc1)C(c1ccc(C3CC3)cc1)N2C (centres unmarked) [Compound 44, 8-Acetyl-2-(4-cyclopropylphenyl)-3-(3-phenylpropyl)-1-methyl-1,3,8-triazaspiro-[4.5]decan-4-one] | – | 73% | 61% | 4.82 | –
CCNC(=O)N1CCC2(CC1)C(=O)N(CCc1ccc(OC)cc1)C(c1ccc(C(C)(C)C)cc1)N2C (centres unmarked) [Compound 15, 2-(4-tert-Butylphenyl)-3-[2-(4-methoxyphenyl)ethyl]-1-methyl-4-oxo-1,3,8-triaza-spiro[4.5]decane-8-carboxylic acid ethyl amide] | – | 84% | – | 5.60 | –
CNC(=O)N1CCC2(CC1)C(=O)N(CCCc1ccccc1)C(c1ccc(C3CC3)cc1)N2C (centres unmarked) [Compound 51, 2-(4-Cyclopropylphenyl)-1-methyl-4-oxo-3-(3-phenylpropyl)-1,3,8-triazaspiro-[4.5]decane-8-carboxylic acid methylamide] | – | 73% | – | 5.00 | –
CCN(CC)C(=O)N1CCC2(CC1)C(=O)N(CCc1ccc(OC)cc1)C(c1ccc(C3CC3)cc1)N2C (centres unmarked) [Compound 19, 2-(4-Cyclopropylphenyl)-3-[2-(4-methoxyphenyl)ethyl]-1-methyl-4-oxo-1,3,8-triaza-spiro[4.5]decane-8-carboxylic acid diethylamide] | – | 97% | – | 5.28 | –

— patent US20070299072A1, “KV1.5 POTASSIUM CHANNEL INHIBITORS” (Wyeth, priority 2006, published 2007)
